{
  "source": "patent US20060110451A1",
  "about": "“Formulations of [1,4]diazepino[6,7,1-IJ]quinoline derivatives” (priority 2004, published 2006)",
  "test": "Ascending multiple dose pharmacokinetics of enteric coated capsules in healthy subjects",
  "type": "in vivo, human",
  "details": "for Tmax / half-life / AUC(0-t) / Cmax / AUC(0-inf): human, plasma",
  "protocol": "Ascending multiple doses of 25, 50, 75, 100, 150, and 250 mg Compound A.HCl were administered as twice-daily regimen (q12h) for 14 days in cohorts of 8 healthy subjects (6 active and 2 placebo). Blood samples for Compound A.HCl analysis were obtained on days 1 and 14 within 2 hours of test article administration and at various time points from 0.5 to 48 hours after test article administration. Doses were administered orally after an overnight fast of at least 10 hours on these 2 days. Trough PK samples were collected on days 7, 10, and 12 to assess whether steady-state had been reached.\nA total of 48 subjects contributed pharmacokinetic data for this analysis. […] FIGS. 4A and 4B show the relationship between Cmax vs. dose and AUC vs. dose, respectively.",
  "note": "Read-outs that look alike come from different tables or passages of the source.",
  "data": [
    {"smiles": "Cl.c1cc2c3c(c1)[C@H]1CCC[C@H]1CN3CCNC2", "note": "[Compound A.HCl, (9aR,12aS)-4,5,6,7,9,9a,10,11,12,12a-decahydrocyclopenta[c][1,4]diazepino[6,7,1-ij]quinoline hydrochloride]", "values": [
      {"measurement": "steady-state Cl/F lower in comparison to the lower dose groups", "setting": "250 mg q12h dose", "value": "54-60%"},
      {"measurement": "time of minor secondary peak", "setting": "day 14 (steady state), most subjects, all dose groups", "value": "24 to 28", "unit": "h"},
      {"measurement": "dose-proportionality of single dose and steady-state AUC and Cmax", "setting": "dose range 25 to 150 mg q12h", "value": "approximately linear dose-proportionality"},
      {"measurement": "Tmax", "setting": "oral, healthy subjects, single and multiple dose administration, enteric-coated formulation, 25-250 mg, read-out: mean Tmax", "value": "4 to 6", "unit": "h"},
      {"measurement": "half-life", "setting": "oral, multiple dose, read-out: mean elimination t1/2", "value": "6 to 8", "unit": "h"},
      {"measurement": "half-life", "setting": "oral, single dose, read-out: mean elimination t1/2", "value": "8 to 11", "unit": "h"},
      {"measurement": "AUC(0-t)", "setting": "po, 25 mg, healthy subjects, multiple oral doses (q12 h) 25 mg, day 14, read-out: AUCss (AUC0-12) (Geom. Mean)", "value": 8, "unit": "ng·h/mL"},
      {"measurement": "AUC(0-t)", "setting": "po, 25 mg, healthy subjects, multiple oral doses (q12 h) 25 mg, day 14, read-out: AUCss (AUC0-12) (Mean)", "value": "~8.73", "unit": "ng·h/mL"},
      {"measurement": "Cmax", "setting": "po, 25 mg, healthy subjects, multiple oral doses (q12 h) 25 mg, day 14, read-out: Cmax (Geom. Mean)", "value": 1.16, "unit": "ng/mL"},
      {"measurement": "Cmax", "setting": "po, 25 mg, healthy subjects, multiple oral doses (q12 h) 25 mg, day 14, read-out: Cmax (Mean)", "value": 1.22, "unit": "ng/mL"},
      {"measurement": "Tmax", "setting": "po, 25 mg, healthy subjects, multiple oral doses (q12 h) 25 mg, day 14, read-out: Tmax (Geom. Mean)", "value": 3.7, "unit": "h"},
      {"measurement": "Tmax", "setting": "po, 25 mg, healthy subjects, multiple oral doses (q12 h) 25 mg, day 14, read-out: Tmax (Mean)", "value": 4, "unit": "h"},
      {"measurement": "half-life", "setting": "po, 25 mg, healthy subjects, multiple oral doses (q12 h) 25 mg, day 14, read-out: t1/2 (Geom. Mean) (converted)", "value": 6.25, "unit": "h"},
      {"measurement": "half-life", "setting": "po, 25 mg, healthy subjects, multiple oral doses (q12 h) 25 mg, day 14, read-out: t1/2 (Mean) (converted)", "value": 6.35, "unit": "h"},
      {"measurement": "Cmax", "setting": "po, 25 mg, healthy subjects, single oral dose 25 mg, day 1, read-out: Cmax (Geom. Mean)", "value": 0.81, "unit": "ng/mL"},
      {"measurement": "Cmax", "setting": "po, 25 mg, healthy subjects, single oral dose 25 mg, day 1, read-out: Cmax (Mean)", "value": 0.87, "unit": "ng/mL"},
      {"measurement": "Tmax", "setting": "po, 25 mg, healthy subjects, single oral dose 25 mg, day 1, read-out: Tmax (Geom. Mean)", "value": 5, "unit": "h"},
      {"measurement": "Tmax", "setting": "po, 25 mg, healthy subjects, single oral dose 25 mg, day 1, read-out: Tmax (Mean)", "value": 5.2, "unit": "h"},
      {"measurement": "AUC(0-t)", "setting": "po, 50 mg, healthy subjects, multiple oral doses (q12 h) 50 mg, day 14, read-out: AUCss (AUC0-12) (Geom. Mean)", "value": 25.3, "unit": "ng·h/mL"},
      {"measurement": "AUC(0-t)", "setting": "po, 50 mg, healthy subjects, multiple oral doses (q12 h) 50 mg, day 14, read-out: AUCss (AUC0-12) (Mean)", "value": "~26.5", "unit": "ng·h/mL"},
      {"measurement": "Cmax", "setting": "po, 50 mg, healthy subjects, multiple oral doses (q12 h) 50 mg, day 14, read-out: Cmax (Geom. Mean)", "value": 3.27, "unit": "ng/mL"},
      {"measurement": "Cmax", "setting": "po, 50 mg, healthy subjects, multiple oral doses (q12 h) 50 mg, day 14, read-out: Cmax (Mean)", "value": 3.39, "unit": "ng/mL"},
      {"measurement": "Tmax", "setting": "po, 50 mg, healthy subjects, multiple oral doses (q12 h) 50 mg, day 14, read-out: Tmax (Geom. Mean)", "value": 5.6, "unit": "h"},
      {"measurement": "Tmax", "setting": "po, 50 mg, healthy subjects, multiple oral doses (q12 h) 50 mg, day 14, read-out: Tmax (Mean)", "value": 5.7, "unit": "h"},
      {"measurement": "half-life", "setting": "po, 50 mg, healthy subjects, multiple oral doses (q12 h) 50 mg, day 14, read-out: t1/2 (Geom. Mean) (converted)", "value": 7.58, "unit": "h"},
      {"measurement": "half-life", "setting": "po, 50 mg, healthy subjects, multiple oral doses (q12 h) 50 mg, day 14, read-out: t1/2 (Mean) (converted)", "value": 7.64, "unit": "h"},
      {"measurement": "AUC(0-inf)", "setting": "po, 50 mg, healthy subjects, single oral dose 50 mg, day 1, read-out: AUC0-∞ (Geom. Mean)", "value": 22.8, "unit": "ng·h/mL"},
      {"measurement": "AUC(0-inf)", "setting": "po, 50 mg, healthy subjects, single oral dose 50 mg, day 1, read-out: AUC0-∞ (Mean)", "value": 23.5, "unit": "ng·h/mL"},
      {"measurement": "Cmax", "setting": "po, 50 mg, healthy subjects, single oral dose 50 mg, day 1, read-out: Cmax (Geom. Mean)", "value": 2.29, "unit": "ng/mL"},
      {"measurement": "Cmax", "setting": "po, 50 mg, healthy subjects, single oral dose 50 mg, day 1, read-out: Cmax (Mean)", "value": 2.35, "unit": "ng/mL"},
      {"measurement": "Tmax", "setting": "po, 50 mg, healthy subjects, single oral dose 50 mg, day 1, read-out: Tmax (Geom. Mean)", "value": 5, "unit": "h"},
      {"measurement": "Tmax", "setting": "po, 50 mg, healthy subjects, single oral dose 50 mg, day 1, read-out: Tmax (Mean)", "value": 5.3, "unit": "h"},
      {"measurement": "half-life", "setting": "po, 50 mg, healthy subjects, single oral dose 50 mg, day 1, read-out: t1/2 (Geom. Mean) (converted)", "value": 9.69, "unit": "h"},
      {"measurement": "half-life", "setting": "po, 50 mg, healthy subjects, single oral dose 50 mg, day 1, read-out: t1/2 (Mean) (converted)", "value": 10.7, "unit": "h"},
      {"measurement": "AUC(0-t)", "setting": "po, 75 mg, healthy subjects, multiple oral doses (q12 h) 75 mg, day 14, read-out: AUCss (AUC0-12) (Geom. Mean)", "value": 24.1, "unit": "ng·h/mL"},
      {"measurement": "AUC(0-t)", "setting": "po, 75 mg, healthy subjects, multiple oral doses (q12 h) 75 mg, day 14, read-out: AUCss (AUC0-12) (Mean)", "value": "~24.9", "unit": "ng·h/mL"},
      {"measurement": "Cmax", "setting": "po, 75 mg, healthy subjects, multiple oral doses (q12 h) 75 mg, day 14, read-out: Cmax (Geom. Mean)", "value": 2.92, "unit": "ng/mL"},
      {"measurement": "Cmax", "setting": "po, 75 mg, healthy subjects, multiple oral doses (q12 h) 75 mg, day 14, read-out: Cmax (Mean)", "value": 3.05, "unit": "ng/mL"},
      {"measurement": "Tmax", "setting": "po, 75 mg, healthy subjects, multiple oral doses (q12 h) 75 mg, day 14, read-out: Tmax (Geom. Mean)", "value": 6.3, "unit": "h"},
      {"measurement": "Tmax", "setting": "po, 75 mg, healthy subjects, multiple oral doses (q12 h) 75 mg, day 14, read-out: Tmax (Mean)", "value": 6.3, "unit": "h"},
      {"measurement": "half-life", "setting": "po, 75 mg, healthy subjects, multiple oral doses (q12 h) 75 mg, day 14, read-out: t1/2 (Geom. Mean) (converted)", "value": 6.38, "unit": "h"},
      {"measurement": "half-life", "setting": "po, 75 mg, healthy subjects, multiple oral doses (q12 h) 75 mg, day 14, read-out: t1/2 (Mean) (converted)", "value": 6.45, "unit": "h"},
      {"measurement": "AUC(0-inf)", "setting": "po, 75 mg, healthy subjects, single oral dose 75 mg, day 1, read-out: AUC0-∞ (Geom. Mean)", "value": 16.8, "unit": "ng·h/mL"},
      {"measurement": "AUC(0-inf)", "setting": "po, 75 mg, healthy subjects, single oral dose 75 mg, day 1, read-out: AUC0-∞ (Mean)", "value": 16.9, "unit": "ng·h/mL"},
      {"measurement": "Cmax", "setting": "po, 75 mg, healthy subjects, single oral dose 75 mg, day 1, read-out: Cmax (Geom. Mean)", "value": 1.56, "unit": "ng/mL"},
      {"measurement": "Cmax", "setting": "po, 75 mg, healthy subjects, single oral dose 75 mg, day 1, read-out: Cmax (Mean)", "value": 1.6, "unit": "ng/mL"},
      {"measurement": "Tmax", "setting": "po, 75 mg, healthy subjects, single oral dose 75 mg, day 1, read-out: Tmax (Geom. Mean)", "value": 5.3, "unit": "h"},
      {"measurement": "Tmax", "setting": "po, 75 mg, healthy subjects, single oral dose 75 mg, day 1, read-out: Tmax (Mean)", "value": 5.5, "unit": "h"},
      {"measurement": "half-life", "setting": "po, 75 mg, healthy subjects, single oral dose 75 mg, day 1, read-out: t1/2 (Geom. Mean) (converted)", "value": 7.93, "unit": "h"}
    ]}
  ]
}
